For test [1], the target named is T1, Serine/threonine-protein kinase LATS1 (Homo sapiens) (UniProt O95835).
T1 sequence (whole entry): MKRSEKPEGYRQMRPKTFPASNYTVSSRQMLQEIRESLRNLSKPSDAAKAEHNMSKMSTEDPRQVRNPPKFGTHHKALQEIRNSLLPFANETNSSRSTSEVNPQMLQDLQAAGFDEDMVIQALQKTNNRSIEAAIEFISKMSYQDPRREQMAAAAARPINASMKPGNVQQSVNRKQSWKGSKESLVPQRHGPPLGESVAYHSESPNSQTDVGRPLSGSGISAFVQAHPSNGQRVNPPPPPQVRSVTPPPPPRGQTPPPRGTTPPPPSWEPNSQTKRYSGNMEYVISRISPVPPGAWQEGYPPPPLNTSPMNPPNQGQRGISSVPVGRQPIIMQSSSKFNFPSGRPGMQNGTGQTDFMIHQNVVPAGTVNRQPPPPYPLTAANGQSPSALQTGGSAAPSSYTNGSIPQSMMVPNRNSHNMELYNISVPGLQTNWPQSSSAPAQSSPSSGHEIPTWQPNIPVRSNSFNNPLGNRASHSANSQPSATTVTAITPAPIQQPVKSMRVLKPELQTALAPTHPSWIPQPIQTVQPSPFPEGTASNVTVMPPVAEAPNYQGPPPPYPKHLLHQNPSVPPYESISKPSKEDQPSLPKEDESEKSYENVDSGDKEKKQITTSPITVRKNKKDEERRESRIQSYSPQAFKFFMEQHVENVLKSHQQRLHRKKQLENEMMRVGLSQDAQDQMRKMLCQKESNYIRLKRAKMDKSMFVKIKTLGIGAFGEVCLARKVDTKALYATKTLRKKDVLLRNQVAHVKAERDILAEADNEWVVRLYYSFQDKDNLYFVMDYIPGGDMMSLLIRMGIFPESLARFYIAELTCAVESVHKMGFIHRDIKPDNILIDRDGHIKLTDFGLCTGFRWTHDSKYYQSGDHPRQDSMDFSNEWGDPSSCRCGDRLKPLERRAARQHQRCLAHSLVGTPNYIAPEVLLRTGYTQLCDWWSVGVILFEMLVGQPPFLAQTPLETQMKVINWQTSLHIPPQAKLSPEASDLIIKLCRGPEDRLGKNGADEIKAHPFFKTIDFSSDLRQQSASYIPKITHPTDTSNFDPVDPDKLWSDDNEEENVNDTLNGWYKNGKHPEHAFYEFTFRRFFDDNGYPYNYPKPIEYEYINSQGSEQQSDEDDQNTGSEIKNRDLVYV
The experiment in a line: Activation of LATS1 in human […] cells assessed as increase in YAP phosphorylation at Ser397 at 0.25 to 1.5 uM measured after 12 to 24 hrs by immunoblotting analysis. The format is cell-based. In general terms: A western blot detects proteins with antibodies after separation by electrophoresis.

For test [2], the target named is T1, Serine/threonine-protein kinase LATS1 (Homo sapiens). Nature of the test: Activation of LATS1 in human PC3 cells assessed as induction of YAP degradation by measuring suppression of YAP protein expression at 0.25 to 1.5 uM measured after 12 to 24 hrs by immunoblotting analysis. The format is cell-based.
In the next test the test system is Mus musculus. Nature of the test: Downregulation of C-myc protein expression in tumor of athymic Nude-Foxn1nu BALB/c mouse xenografted with human MDA-MB-231 cells at 200 mg/kg, po administered once daily via gavage for 40 days by immunoblotting analysis. The format is functional, organism-based. In general terms: In xenograft studies the graft and the host belong to different species.

The species entered for the next test is Homo sapiens. The experiment in a line: Activation of MOB in human PC3 cells assessed as phosphorylation at Thr35 residue at 0.25 to 1.25 uM measured after 24 hrs by Western blot analysis. The format is cell-based.
The test system of test [3] is MDA-MB-231. The experiment in a line: Effect on MST2 expression in human MDA-MB-231 cells at 0.25 to 1.5 uM measured after 24 hrs by Western blot analysis. The test is classed as functional, cell-based.
Test [4] concerns MDA-MB-231. The experiment in a line: Effect on MOB expression in human MDA-MB-231 cells at 0.25 to 1.5 uM measured after 24 hrs by Western blot analysis. The test is classed as functional, cell-based.
Test [5] concerns the target T1, Serine/threonine-protein kinase LATS1 (Homo sapiens). The experiment in a line: Activation of LATS1 in human MDA-MB-231 cells assessed as induction of YAP degradation by measuring suppression of YAP protein expression at 0.25 to 1.5 uM measured after 12 to 24 hrs by immunoblotting analysis. The test is classed as cell-based.
In a further test the test system is PC-9. The experiment in a line: Cytostatic activity against human PC9 cells assessed as cell viability at concentration of greater than IC50 measured up to 72 hrs by MTT assay. The format is functional, cell-based.
The next test relates to PC-3. Nature of the test: Cytostatic activity against human PC3 cells assessed as cell viability at concentration of greater than IC50 measured up to 72 hrs by MTT assay. The test is classed as functional, cell-based. (In general: Formazan colour is commonly taken as a measure of viable cells.)

Each structure is given as a SMILES string. Active and inactive are the calls of the source. The calls are words filed in the database; no cut-off is given here.

For the compound `CC(=O)Nc1ccc(NC(=O)Nc2cccc(-c3nc(-c4ccc(NC(=O)c5cccnc5)cc4Cl)no3)c2)cc1C(F)(F)F`, the result (in test [1]; in [2]; in test [5]; with PC-9; in the test on PC-3) was Active. Moreover, the inhibition entry with Mus musculus was “Active”. Also, the result in the test filed under Homo sapiens, in the test on MDA-MB-231 [3] and in the test on MDA-MB-231 [4] was inactive.

These data come from ChEMBL document CHEMBL4342507, “Targeting YAP Degradation by a Novel 1,2,4-Oxadiazole Derivative via Restoration of the Function of the Hippo Pathway” (ACS Med Chem Lett, 2020).
